In patent publication US5441984A, “Urea, thiourea and guanidine derivatives” (Eli Lilly and Company, priority 1994, dated 1995):

Assays:
diabetic rats = experiment: In Vivo Vascular Permeability Study in diabetic rats; set-up: species or system rat; conditions: treated diabetic rats; 0.1% of diet, seven weeks; Mean ± SD; eight rats per group
Method: As confirmation of the in vivo results obtained above, a second in vivo experiment was conducted. In this in vivo test system the compound of Example 7 was fed to diabetic rats at 0.1% of the rat's diet for seven weeks. After seven weeks the rats were killed and vascular permeability in a number of different organ systems was compared. In Table III, Column 1 discloses the organ system examined, while Columns 2, 3 and 4 disclose the vascular permeability in μg of plasma/gram wet weight/minute for control (non-diabetic rats), untreated (diabetic rats/untreated) and treated (diabetic rats/treated), respectively (eight rats per each group).

[1] = molecular target: Protein Kinase C mediated procollagenase synthesis and secretion; experiment: In Vitro Inhibition of Procollagenase: PKC (PDBu) stimulated procollagenase synthesis and secretion in primary human dermal fibroblasts; type: cell-based; set-up: unit not given here; conditions: 2.0% FBS used to supplement DME; 10 nM PDBu, 72 hours
From the text: Collagenase and stromelysin are matrix metalloendoproteases which are known to be synthesized and secreted by a number of cell types in response to Protein Kinase C (PKC) activation. Matrix metalloendoproteases are responsible for the degradation of extracellular matrix molecules in the basement membrane and play a role in cell invasiveness, tissue remodeling alterations in the microvasculature (increased capillary permeability and uncontrolled cell growth) and normal matrix turnover. Alterations in the microvasculature are hallmarks of diabetic complications such as kidney failure, blindness and neuropathy. Accordingly, the ability to modulate PKC driven pathways, such as the synthesis and secretion of the […] enzyme precursor, procollagenase, should provide pharmacological advantages in treating diabetic complications.
The compounds of the present invention were evaluated for their ability to antagonize Protein Kinase C mediated procollagenase synthesis and secretion according to the following methodology.
Stimulation of the enzyme Protein Kinase C with 4-β-phorbol-12,13-dibutyrate (PDBu) leads human fibroblasts and other cells of endodermal, mesodermal and ectodermal origin to synthesize and secrete the enzyme precursor procollagenase. […]
9. After washing, the plates were read. […]

## CSc1ccc(NC(=O)NCc2cc(C(C)(C)C)c(O)c(C(C)(C)C)c2)cc1 [Example 6, N-[[3,5-Bis(1,1-dimethylethyl)-4-hydroxyphenyl]methyl]-N'-[4-(methylthio)phenyl]urea]
rat
  % Normalization of Diabetic State, Blood Flow: 35.48%
  % Normalization of Diabetic State, Blood Vessel Permeability: 66.12%

## COc1c(C(C)(C)C)cc(CNC(=O)Nc2ccc(SC)cc2)cc1C(C)(C)C [Example 7]
Diabetic rats
  vascular permeability, aorta: 109 ± 65 μg plasma/g wet weight/min
  vascular permeability, brain: 26 ± 11 μg plasma/g wet weight/min
  vascular permeability, heart: 547 ± 181 μg plasma/g wet weight/min
  vascular permeability, kidney: 1208 ± 293 μg plasma/g wet weight/min
  vascular permeability, muscle: 59 ± 13 μg plasma/g wet weight/min
  vascular permeability, ocular anterior uvea: 373 ± 105 μg plasma/g wet weight/min
  vascular permeability, ocular posterior uvea: 323 ± 91 μg plasma/g wet weight/min
  vascular permeability, retina: 62 ± 18 μg plasma/g wet weight/min
  vascular permeability, sciatic nerve: 59 ± 18 μg plasma/g wet weight/min

## CSc1ccccc1NC(=O)NCc1cc(C(C)(C)C)c(O)c(C(C)(C)C)c1 [Example 9, N-[[3,5-Bis(1,1-dimethylethyl)-4-hydroxyphenyl]methyl]-N'-[2-(methylthio)phenyl]urea]
rat
  % Normalization of Diabetic State, Blood Flow: 23.29%
  % Normalization of Diabetic State, Blood Vessel Permeability: 8.45%

## CC(C)(C)c1cc(CNC(=S)Nc2ccccc2)cc(C(C)(C)C)c1O [Example 10, N-[[3,5-Bis(1,1-dimethylethyl)-4-hydroxyphenyl]methyl]-N'-phenylthiourea]
rat
  % Normalization of Diabetic State, Blood Flow: 17.56%
  % Normalization of Diabetic State, Blood Vessel Permeability: 1.99%

## CSc1cccc(NC(=O)NCc2cc(C(C)(C)C)c(O)c(C(C)(C)C)c2)c1 [Example 11, N-[[3,5-Bis(1,1-dimethylethyl)-4-hydroxyphenyl]methyl]-N'-[3-(methylthio)phenyl]urea]
rat
  % Normalization of Diabetic State, Blood Flow: 21.50%
  % Normalization of Diabetic State, Blood Vessel Permeability: -30.34%

## N-[[3-(methylthiophenyl)-4-hydroxy-5-(1,1-dimethylethyl)phenyl]methyl]-N'-[4-(methylthio)phenyl]urea [Example 13]
[1]
  IC50: 8.6
